Structures are written as SMILES.

For one experiment, the target named is T1, human MC1R (Homo sapiens, UniProt Q01726).
T1 construct: expressed in transfected cells; host or cells: CHO-6xCRE-luc+ reporter cell line
The experiment is described as follows: CHO-6xCRE-luc+ reporter gene assay, MC1R agonist activity. The following applies: for Emax: 4 h, read-out: % of MSH. In kind it is cell-based. As for the experimental part: (§1) CHO-6×CRE-luc^+ reporter cell lines expressing human MC1R, MC3R, MC4R, and MC5R (GenBank accession numbers X65634, L06155, S77415 and U08353) and the CHO host reporter gene cell line were propagated in complete medium in T225 flasks. Forty-eight hours prior to assay, cells were harvested with 2 ml of 0.05% trypsin, washed with complete medium and plated at a concentration of 4000 cells/well in complete medium. Sixteen hours prior to the assay, the medium was removed from the cells and replaced with 90 μl/well of serum-free DMEM/F12. At the time of the assay the compounds were added in a 10 μl volume and plates were incubated for 4 h at 37° C. in a cell culture incubator. The medium was aspirated followed by the addition of 50 μl of a 1:1 mixture of LucLite™ and dPBS containing 1 mM CaCl2 and 1 mM MgCl2. The plates were then sealed and subjected to dark adaptation at room temperature for 10 min before luciferase activity was quantitated on a TopCount™ microplate scintillation counter (Packard) using 3 s/well count time. The NDP-αMSH and 154N-5 concentration-response curve data were expressed as a percentage of the fold stimulation in the NDP-αMSH control for each receptor subtype. The control value is the average of duplicate wells treated with 1×10^−7 M NDP-αMSH.

The next experiment concerns the target T2, human MC4R (Homo sapiens, UniProt P32245).
T2 construct: expressed in transfected cells; host or cells: CHO-6xCRE-luc+ reporter cell line
Nature of the experiment: CHO-6xCRE-luc+ reporter gene assay, MC4R agonist activity. Format: cell-based. The following applies: for Emax: 4 h, percentage of the fold stimulation in the NDP-αMSH control (1×10^−7 M), human MC4R, read-out: % Max MSH; for EC50: CHO-6xCRE-luc+ cells expressing human MC4R, 4 h at 37° C., luciferase activity. As to the method: as §1

Where [1] appears, read: percentage of the fold stimulation in the NDP-αMSH control (1×10^−7 M), human MC1R.
Setting [2] is: CHO-6xCRE-luc+ cells expressing human MC1R, 4 h at 37° C., luciferase activity.

T2 sequence (P32245 whole entry): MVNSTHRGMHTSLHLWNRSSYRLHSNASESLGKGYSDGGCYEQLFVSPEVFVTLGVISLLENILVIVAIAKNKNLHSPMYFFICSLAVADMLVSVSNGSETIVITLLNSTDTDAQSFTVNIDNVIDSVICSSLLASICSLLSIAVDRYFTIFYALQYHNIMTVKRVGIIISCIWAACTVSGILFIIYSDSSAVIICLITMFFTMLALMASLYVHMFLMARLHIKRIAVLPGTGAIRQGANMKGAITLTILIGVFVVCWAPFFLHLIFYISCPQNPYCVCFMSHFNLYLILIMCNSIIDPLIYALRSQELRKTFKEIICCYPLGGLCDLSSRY
T1 sequence (Q01726 whole entry): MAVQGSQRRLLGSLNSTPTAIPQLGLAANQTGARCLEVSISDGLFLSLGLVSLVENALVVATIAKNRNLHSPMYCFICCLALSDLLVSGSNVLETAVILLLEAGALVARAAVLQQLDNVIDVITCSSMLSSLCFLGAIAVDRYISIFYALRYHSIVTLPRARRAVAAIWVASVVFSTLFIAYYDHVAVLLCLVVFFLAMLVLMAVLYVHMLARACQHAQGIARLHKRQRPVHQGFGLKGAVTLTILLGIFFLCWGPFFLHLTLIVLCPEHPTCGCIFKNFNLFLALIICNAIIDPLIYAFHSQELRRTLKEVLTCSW

Turning to `COc1ccc(N(C(=O)CN2C=CN(c3ccccc3)C(=O)C(Cc3n[nH]c4ccccc34)C2=O)C(C)C)cc1` (single isomer, unassigned) [Example 2], the figures for the Emax at human MC1R (setting [1]) and on human MC4R were 85% and 51%, respectively. Further, the values for the concentration for a half-maximal effect (EC50) at human MC1R (setting [2]) and at human MC4R were 0.0186 µM and 0.282 µM, respectively.
With `O=C1C(Cc2n[nH]c3ccccc23)C(=O)N(c2ccccc2)C=CN1CC(=O)N1CCCCc2ccccc21` (single isomer, unassigned) [Example 18], the Emax at human MC1R (setting [1]) was found to be 87%. Also, the concentration giving a half-maximal response (EC50) on human MC1R (setting [2]) is 0.00158 µM.
Regarding `CC(C)N(C(=O)CN1C=CN(c2ccccc2)C(=O)C(Cc2n[nH]c3cc(F)ccc23)C1=O)c1ccccc1` (single isomer, unassigned) [Example 21], the Emax at human MC1R (setting [1]) came to 79%. Besides, the response at human MC1R (setting [2]) was half-maximal at 0.0355 µM (EC50).
Compound `O=C1C(Cc2n[nH]c3ccccc23)C(=O)N(c2ccccc2)C=CN1CC(=O)N1CCCCc2ccccc21` (single isomer, unassigned) [Example 24] registered a pEC50 on human MC1R (setting [2]) of 8.80. Further, the “% of MSH” value on human MC1R (setting [1]) worked out at 86%.
For `COc1ccc(N(C(=O)CN2C=CN(c3ccccc3)C(=O)C(Cc3n[nH]c4ccccc34)C2=O)C(C)C)cc1` (stereo not shown) [Example 1], the Emax at human MC1R (setting [1]) turned out to be 68%; at human MC4R, 56%. The EC50 was 0.0295 µM at human MC1R (setting [2]) and 0.417 µM at human MC4R.
Taken in the same sequence, the figures for `CC(C)N(C(=O)CN1C=CN(c2ccccc2)C(=O)C(Cc2n[nH]c3ccccc23)C1=O)c1ccc(Cl)cc1` (stereo not shown) [Example 3] were 73%, 58%, 0.112 µM and 0.0427 µM.
With `Cc1cc(OC(F)(F)F)ccc1N(C(=O)CN1C=CN(c2ccccc2)C(=O)C(Cc2n[nH]c3ccccc23)C1=O)C(C)C` (stereo not shown) [Example 4], the Emax at human MC1R (setting [1]) worked out at 74%; on human MC4R, 52%. Besides, the half-maximal effective concentration (EC50) at human MC1R (setting [2]) was 0.0708 µM; on human MC4R, 0.0447 µM.
Regarding `COC1(Cc2n[nH]c3ccccc23)C(=O)N(CC(=O)N(c2ccc(F)cc2)C(C)C)C=CN(c2ccccc2)C1=O` (stereo not shown) [Example 5, 2-[2,4-dioxo-3-(1H-indazol-3-ylmethylene)-3-methoxy-5-phenyl-2,3,4,5-tetrahydro-1H-1,5-diazepin-1-yl]-N-(4-fluorophenyl) N-isopropylacetamide], at human MC4R, the Emax turned out to be 78% and the concentration for a half-maximal effect (EC50) was 0.151 µM.
Turning to `CC(C)N(C(=O)CN1C=CN(c2ccccc2)C(=O)C(Cc2n[nH]c3ccccc23)C1=O)c1ccc(OC(F)(F)F)cc1` (stereo not shown) [Example 6], the Emax at human MC1R (setting [1]) was 91%; on human MC4R it was 51%. The EC50 is 0.0224 µM on human MC1R (setting [2]) and 0.204 µM on human MC4R.
Consider `COc1cccc2c1CCCCN2C(=O)CN1C=CN(c2ccccc2)C(=O)C(Cc2n[nH]c3ccccc23)C1=O` (stereo not shown) [Example 7], for which the results for the Emax on human MC1R (setting [1]) and on human MC4R were 50% and 77%, respectively. For the same compound, the EC50 at human MC1R (setting [2]) was 0.0407 µM; on human MC4R it was 0.347 µM.
In the same order, the values of `CCc1ccc(N(C(=O)CN2C=CN(c3ccccc3)C(=O)C(Cc3n[nH]c4ccccc34)C2=O)C(C)C)cc1` (stereo not shown) [Example 8] are 72%, 53%, 0.148 µM and 0.347 µM.
In the same order, the values of `CCCc1ccc(N(C(=O)CN2C=CN(c3ccccc3)C(=O)C(Cc3n[nH]c4ccccc34)C2=O)C(C)C)cc1` (stereo not shown) [Example 9] are 37%, 65%, 0.2 µM and 0.389 µM.
Take `CC(C)N(C(=O)CN1C=CN(c2ccccc2)C(=O)C(Cc2n[nH]c3ccccc23)C1=O)c1ccc(I)cc1` (stereo not shown) [Example 10]: the Emax came out at 84% on human MC1R (setting [1]) and 49% on human MC4R. In addition, the results for the EC50 at human MC1R (setting [2]) and at human MC4R were 0.0724 µM and 0.398 µM, respectively.
Take `CC(C)N(C(=O)CN1C=CN(c2ccccc2)C(=O)C(Cc2n[nH]c3ccccc23)C1=O)c1ccc(C(F)(F)F)cc1` (stereo not shown) [Example 11]: the results for the Emax on human MC1R (setting [1]) and on human MC4R were 68% and 55%, respectively. Further, the concentration giving a half-maximal response (EC50) on human MC1R (setting [2]) is 0.145 µM; at human MC4R, 0.417 µM.
Taken in the same sequence, the figures for `COc1ccc(N(C(=O)CN2C=CN(c3ccccc3)C(=O)C(Cn3c(=O)[nH]c4ccccc43)C2=O)C(C)C)cc1` (stereo not shown) [Example 12] were 61%, 56%, 0.0195 µM and 0.437 µM.
On to `CCOc1ccc(N(C(=O)CN2C=CN(c3ccccc3)C(=O)C(Cc3n[nH]c4ccccc34)C2=O)C(C)C)cc1` (stereo not shown) [Example 13], for which the Emax on human MC1R (setting [1]) was 64%; on human MC4R, 65%. Moreover, the 50% effective concentration (EC50) was 0.11 µM on human MC1R (setting [2]) and 0.513 µM at human MC4R.
Consider `Cc1ccc(N(C(=O)CN2C=CN(c3ccccc3)C(=O)C(Cc3n[nH]c4ccccc34)C2=O)C(C)C)cc1` (stereo not shown) [Example 14], for which the Emax at human MC1R (setting [1]) came out at 69%. Further, on human MC1R (setting [2]), the EC50 was 0.269 µM.
In the same order, the values of `O=C1C(Cc2n[nH]c3cc(F)ccc23)C(=O)N(c2ccccc2)C=CN1CC(=O)N1CCCCc2ccccc21` (stereo not shown) [Example 15] are 61% and 0.00158 µM.
With `O=C1C(Cc2n[nH]c3ccccc23)C(=O)N(c2ccccc2)C=CN1CC(=O)N1CCCCc2ccccc21` (stereo not shown) [Example 16], the Emax at human MC1R (setting [1]) was 61%. At human MC1R (setting [2]), this compound had an EC50 of 0.00158 µM.
Taken in the same sequence, the figures for `COc1ccc(N(C(=O)CN2C=CN(c3ccccc3)C(=O)C(Cc3n[nH]c4cc(F)ccc34)C2=O)C(C)C)cc1` (stereo not shown) [Example 17] were 83% and 0.00158 µM.
As for `CC(C)N(C(=O)CN1C=CN(c2ccccc2)C(=O)C(Cc2n[nH]c3cc(F)ccc23)C1=O)c1ccc(F)cc1` (stereo not shown) [Example 19], at human MC1R (setting [1]), the Emax came to 53%. In addition, the EC50 on human MC1R (setting [2]) is 0.0141 µM.
As to `CC(C)N(C(=O)CN1C=CN(c2ccccc2)C(=O)C(Cc2n[nH]c3cc(F)ccc23)C1=O)c1ccccc1` (stereo not shown) [Example 20], on human MC1R (setting [1]), the Emax was found to be 51%. On human MC1R (setting [2]), this compound had a concentration giving a half-maximal response (EC50) of 0.191 µM.
In the same order, the values of `CC(C)N(C(=O)CN1C=CN(c2ccccc2)C(=O)C(Cc2n[nH]c3ccccc23)C1=O)c1ccc(F)cc1` (stereo not shown) [Example 22] are 54% and 0.0501 µM.
Taken in the same sequence, the figures for `CCCN(C(=O)CN1C=CN(c2ccccc2)C(=O)C(Cc2n[nH]c3ccccc23)C1=O)c1ccc(OC)cc1` (stereo not shown) [Example 23] were 72% and 0.0513 µM.
Taken in the same sequence, the figures for `CCN(C(=O)CN1C=CN(c2ccccc2)C(=O)C(Cc2n[nH]c3ccccc23)C1=O)c1ccc(OC)cc1` (stereo not shown) [Example 25] were 72% and 0.0646 µM.
In the case of `CC(C)Oc1ccc(N(C(=O)CN2C=CN(c3ccccc3)C(=O)C(Cc3n[nH]c4ccccc34)C2=O)C(C)C)cc1` (stereo not shown) [Example 26], the Emax on human MC1R (setting [1]) worked out at 41%. Further, at human MC1R (setting [2]), the concentration giving a half-maximal response (EC50) is 0.0741 µM.
Taken in the same sequence, the figures for `COc1ccc(N(C(=O)CN2C=CN(c3ccccc3)C(=O)C(Cc3n[nH]c4c3CCCC4)C2=O)C(C)C)cc1` (stereo not shown) [Example 27] were 95% and 0.129 µM.
As for `CC(C)N(C(=O)CN1C=CN(c2ccccc2)C(=O)C(Cc2n[nH]c3ccccc23)C1=O)c1ccc(O)cc1` (stereo not shown) [Example 28], the Emax on human MC1R (setting [1]) is 79%. The same compound showed an EC50 on human MC1R (setting [2]) of 0.158 µM.
Taken in the same sequence, the figures for `COc1ccc(N(C(=O)CN2C=CN(c3ccccc3)C(=O)C(Cn3cnc4ccccc43)C2=O)C(C)C)cc1` (stereo not shown) [Example 29] were 103% and 0.182 µM.
Taken in the same sequence, the figures for `CC1CCc2ccccc2N1C(=O)CN1C=CN(c2ccccc2)C(=O)C(Cc2n[nH]c3ccccc23)C1=O` (stereo not shown) [Example 30] were 69% and 0.204 µM.
For the compound `CC(C)c1ccc(N(C(=O)CN2C=CN(c3ccccc3)C(=O)C(Cc3n[nH]c4ccccc34)C2=O)C(C)C)cc1` (stereo not shown) [Example 31], the Emax at human MC1R (setting [1]) was found to be 40%. For the same compound, the EC50 at human MC1R (setting [2]) was 0.224 µM.
In the case of `CC(C)N(C(=O)CN1C=CN(c2ccccc2)C(=O)C(Cc2n[nH]c3ccccc23)C1=O)c1ccccc1` (stereo not shown) [Example 32], the Emax at human MC1R (setting [1]) was determined as 54%. At human MC1R (setting [2]), this compound had a half-maximal effective concentration (EC50) of 0.295 µM.

Source of the values: patent US7442693B2, “Diazepine compounds as ligands of the melanocortin 1 and/or 4 receptors” (SmithKline Beecham Corporation, priority 2004, dated 2008).
